One data set deals with T1, uPAR (Homo sapiens, UniProt Q03405).
T1 construct: uPAR comprising amino acids 1-277 was expressed in Drosophila S2 cells; made in house; host or cells: Drosophila S2 cells
The experiment in a line: Fluorescence polarization, direct binding to uPAR. Conditions: excitation 530 nm, emission 600 nm. The method, then:
Fluorescence polarization in the presence and absence of protein and were measured using identical conditions as described above.
The mP was evaluated in the a presence and absence of competing 10 μM GFD.

The test system of a further data set is TMD-231 cells. The experiment in a line: xenograft mice model of breast cancer metastasis. The data set is classed as in vivo. The method, then: in vivo Efficacy of IPR-803 in xenograft mice model of cancer. Breast Cancer Metastasis. The Example is performed as described in Wang et al. (2011) Virtual Screening Targeting the Urokinase Receptor, Biochemical and Cell-Based Studies, Synthesis, Pharmacokinetic Characterization, and Effect on Breast Tumor Metastasis. J Med Chem In press, the disclosure of which is incorporated herein in its entirety. Briefly, TMD-231 cells are inoculated into the mammary fat pad of female NOD/SCID mice. Dosing is initiated at day 15 post implantation. Animals are randomized and treated with vehicle or with test compound by daily oral gavage at a dose of 200 mg/kg.
While uPAR's effects on growth are known to be minimal, its role in promoting invasion and metastasis is widely established. To assess the effect of IPR-803 on metastasis, control and experimental animals were sacrificed and organs (lungs) were removed and evaluated for the presence of tumors. The number and size of metastasis in two to five fields per sample were calculated. A score of 4+ was given to a sample with highest metastasis index and relative metastasis in other samples are calculated (i.e., 1+, 2+, 3+) by a sample-blinded pathologist. […] For example, 11 out of 13 untreated mice developed severe (score=3) or marked (score=4) metastasis to the lung. This is compared to only 4 in the treated mice. Among the treated mice, 4 developed moderate metastasis, and another four were scored at 1 or lower, showing mild metastasis to the lungs.
IPR-803 was administered at 200 mg/kg p.o. to test animals, and conventional evaluation of cancer progression and survival measurements were made. […] It is observed that there is a greater percentage of mild an moderate outcomes in the treatment group compared to the untreated group showing a majority of severe outcomes. In addition, whole animal toxicity was evaluated by periodic measurement of weight change in test animals.

In data set [1] the test system is integrins (phospho p44/42 MAPK, p44/42 MAPK, pSrc Y416, Src, pFAK Y397, FAK). The experiment in a line: Integrin signaling by gel electrophoresis. The data set is classed as cell-based.
The nature of data set [2]: in vivo pharmacokinetics in mice. The method, then:
in vivo Pharmacokinetics of IPR-803 in mice. Compounds are administered to mice via a single dose of 200 mg/kg by oral gavage using a formulation of saline. Blood ([…]) is taken from the mice at their tails at time intervals of 1, 2, 4, 6, 8 and 10 hours (three time points from each of the 18 mice (21)) post injection. Blood plasma samples are prepared by centrifugation for quantification and HPLC-MS/MS analysis. […] The stability of the compounds in plasma is reflected by the half-life (t1/2). To gain insight into its absorption following oral dosing, intravenous bioavailability of compounds described herein is determined. Compounds are injected intravenously (IV) into the tail vein. Blood plasma samples are prepared from collected blood samples at 5, 10, 20, 45 and 120 minutes (three mice per time point). […] The levels of the compound in tumor tissue remained high even after 10 hours.

Data set [3] in a line: cellular studies, cytotoxicity of IPR-803. In kind it is cell-based.
Where [4] appears, read: mouse, plasma, po, 200 mg/kg p.o.

Where two headings read alike, the source gives them in different places.

T1 sequence (Q03405 23-299): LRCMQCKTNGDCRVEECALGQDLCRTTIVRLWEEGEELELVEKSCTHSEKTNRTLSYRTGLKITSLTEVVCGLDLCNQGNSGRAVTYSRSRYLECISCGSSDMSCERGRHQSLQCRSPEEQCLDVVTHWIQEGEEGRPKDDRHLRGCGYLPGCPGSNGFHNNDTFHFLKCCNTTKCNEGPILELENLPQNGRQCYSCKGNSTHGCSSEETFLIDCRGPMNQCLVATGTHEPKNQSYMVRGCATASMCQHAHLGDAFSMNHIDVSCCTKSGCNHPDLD

As to `O=C(O)c1cccc(Nc2cc(N3CCCCCC3)c3noc4c3c2C(=O)c2ccccc2-4)c1` [IPR-803, 3-((3-(azepan-1-yl)-6-oxo-6H-anthra[1,9-cd]isoxazol-5-yl)amino)benzoic acid], the “fluorescence polarization (mP) with increasing uPAR concentration” value on uPAR is “showed a dose response with increasing mP”. For the same molecule, the “outcome (cancer progression and survival) compared to vehicle” value in the data set on TMD-231 cells (200 mg/kg p.o., n=15) is on record as “statistically significant (p<0.013) improvement in outcome”. Moreover, in the data set with TMD-231 cells (200 mg/kg p.o., n=15, vs vehicle control), the “weight change (whole animal toxicity)” value is reported as “No significant weight change”. Besides, in the data set on TMD-231 cells (treated mice), the “number of mice scored at 1 or lower, mild metastasis to the lungs” value was “four”; the “number of mice with moderate metastasis” value amounted to 4; the “number of mice with severe (score=3) or marked (score=4) metastasis to the lung” value came out at 4. In the data set with TMD-231 cells (treated mice, 200 mg/kg daily oral gavage, 33 day study), this molecule registered a tumor volume of roughly 693 mm^3. Besides, in the data set on TMD-231 cells (treated vs untreated), the “effects on tumor size” value was roughly 10%. For the same molecule, in data set [1], the “signaling effect on pathways implicated with growth, such as ERK” value is on record as “does not have a signaling affect”. Moreover, in data set [2] (200 mg/kg p.o.), the Cl/F was 0.379 L/h. In data set [2] (LC/MS/MS at 1, 2, 4, 6, and 8 hour intervals), the “level in the primary tumor” value was roughly 10 µM. The “levels of the compound in tumor tissue” value in data set [2] (after 10 hours) is “remained high”. For the same molecule, the bioavailability in data set [2] (mouse, plasma, oral, 200 mg/kg, estimated from p.o. and IV data) was roughly 4%. Further, in data set [2] (setting [4]), the AUC(0-inf) was found to be 13700 ng·h/mL, the AUC(0-t) came to 11300 ng·h/mL, the Tmax amounted to 1 h and the half-life is 4.7 h. Besides, the Cmax in data set [2] (mouse, plasma, po, 200 mg/kg p.o., read-out: Cmax) was 2600 ng/mL. The Vd/F in data set [2] (mouse, plasma, po, 200 mg/kg p.o., read-out: Vdss/F) was 2.23 L. In data set [2] (mouse, plasma, mice, 200 mg/kg oral gavage, saline, read-out: maximum concentration (Cmax) in plasma), the Cmax amounted to 5 µM. For the same molecule, the cytotoxicity entry in data set [3] was “not cytotoxic”.

A word on the bioavailability: it is the share of a dose that reaches the circulation, judged against a reference dose that is usually intravenous. As a reminder, the AUC(0-inf) is the area under the concentration-time curve extrapolated to infinity. Low values mean less exposure, high ones more exposure. For orientation: AUC(0-t) means the area under the concentration-time curve up to a stated or last time point. A high value points to more exposure. For orientation: Tmax means the time at which the peak concentration occurs. In general, half-life refers to how long it takes for the measured level to halve.

The record behind these values is patent US9376406B2, “uPAR-uPA interaction inhibitors and methods for treating cancer” (Indiana University Research and Technology Corporation, priority 2011, dated 2016).
